{
  "source": "patent US20010031275A1",
  "about": "“Sesamol inhibitor of delta-5-desaturase activity and uses therefor” (priority 1998, published 2001)",
  "key": {"[1]": {"experiment": "Weights of body, liver and spleen of mice fed sesamol-supplemented diets", "format": "in vivo, Balb/c mice", "experimental": "Animals: Six 8-week old, inbred, female Balb/c mice (Taconic Farms) were housed in our animal facility with a 12 hour day and 12 hour night cycle. They were allowed free access to drinking water and the experimental diets were fed at dusk, daily, between 4-5 PM. The weights of the body, and of the liver and spleen were determined on days 4, 7 and 14."}, "[2]": {"tested_on": "IL-6, IL-10, IL-12, TNF-α and PGE2", "experiment": "Synthetic sesamol diet in endotoxic mice: plasma cytokines and PGE2 after LPS challenge", "format": "in vivo, Balb/c mice", "settings": "5% SO + 0.25% synthetic sesamol diet, three weeks, 50 μg/mouse LPS for 90 minutes or three hours", "excerpt": "Proinflammatory mediators play an important role during endotoxic shock. As described herein, naturally occurring sesamol inhibits Δ-5 desaturase activity, and also decreases the production of prostaglandin (PG)E2. No such scientific data are available for the synthetic, pure form of sesamol. Therefore, the effects of consuming synthetic sesamol on proinflammatory immune responses during septic shock were studied. Female Balb/c mice were fed diets supplemented with 5% safflower oil (SO) in the absence or presence of 0.25% synthetic sesamol for three weeks. After a challenge with 50 μg/mouse LPS for 90 minutes or three hours, the plasma levels (pg/ml) of interleukin (IL)-6, IL-10, IL-12, tumor necrosis factor (TNF)-α and PGE2 were determined."}, "[3]": {"tested_on": "Δ-5 desaturation of ω6 fatty acids", "experiment": "Fatty acid composition of liver membrane phospholipids from mice fed sesamol-supplemented safflower oil diet", "format": "in vivo, Balb/c mice", "settings": "2 weeks; for DGLA (20:3ω6): control 1.4 ± 0.1; for Docosapentaenoic acid (22:5ω6): control 2.5 ± 0.4; for Δ-5 desaturation (20:4ω6/20:3): ratio Arachidonic acid/Dihomo-γ-linolenic acid, liver phospholipids, SO + 1% sesamol diet, control 18.0 ± 1.7", "experimental": "The phospholipid fatty acid composition of the livers were determined, and the data represent mean mole percents of the total fatty acids (±s.d.). The levels of significance between the groups were determined using an unpaired student's t-test (p,0.05).\n[…] They were allowed free access to drinking water and the experimental diets were fed at dusk, daily, between 4-5 PM. The weights of the body, and of the liver and spleen were determined on days 4, 7 and 14.\n(§1) Diets: The AIN-76A fat-free powder along with 0.05% t-butyl hydroxy toluene, an antioxidant, was mixed with 5 wt % (10% Kcal) of safflower oil (Oilseeds International Ltd., Fresno, Calif.), partitioned into daily rations packaged in separate whirl-pack bags, flushed with N2, and stored at 4° C. Where indicated, these diets were supplemented with 1 wt % sesamol (Aldrich Chemical Company Inc. Milwaukee, Wis.).\nFatty acid analysis: Liver tissues were homogenized and extracted with a mixture of chloroform:methanol(2:1 v/v) containing 0.01% t-butylated hydroxytoluene as an antioxidant. The solvent fraction was isolated and evaporated to dryness under N2 and reconstituted in chloroform. The total phospholipids were separated by thin-layer chromatography on silica gel-H plates (Analtech Inc., Newark, Del.), and the fatty acid methyl esters were derived (Palombo et al., Lipids 29: 643-649 (1994)) and analyzed on a fused silica capillary column (100 m, 0.25 mm ID, 0.20 μm thickness; SP™-2560, Supelco Inc., Bellefonte, Pa.) using a gas chromatograph (5890 Series II) equipped with a mass selective detector (5971, Hewlett-Packard). The results were expressed as relative percent of identified fatty acids on a molar basis, using heptadecaenoic acid (17:0) as an internal standard.\nThe changes in the fatty acid composition (mean±s.d; mol. %) were determined in the liver membrane phospholipids from mice fed both the SO diets for 2 weeks (Table 1). […] Similar data were obtained in mice fed for as short as 4 days (data not shown)."}, "[4]": {"tested_on": "TNF-α, IL-6, IL-10 and IL-12", "experiment": "Endotoxin-induced in vivo production of cytokines (plasma ELISA) in mice fed sesamol-supplemented SO diet", "design": "species or system Balb/c mice", "settings": "SO + 1% sesamol diet, mean ± s.e.; for Tumor Necrosis Factor (TNF)-α: plasma at 1 hour following LPS, SO alone 3,042 ± 428; for Interleukin (IL)-6 / IL-10 / IL-12: plasma at 3 hours following LPS; for Interleukin (IL)-6: SO alone 143 ± 22; for IL-10: SO alone 262 ± 15; for IL-12: SO alone 6,355 ± 482", "experimental": "Data represent the levels of […] (means±s.e.) in plasma samples obtained at 1 hour for TNF-α, and at 3 hours for IL-6, IL-10, and IL-12 following LPS exposure. The levels of significance in the differences between the two groups were determined using Dunnett Multiple Comparison test.\nas §1\nThe plasma levels of TNF-α, IL-6, IL-10 and IL-12 were determined according to the manufacturer's instructions using enzyme-linked immunosorbent assay kits (Biosource International, Camarrilo, Calif.)."}, "Δ-5 desaturase enzyme": {"tested_on": "Δ-5 desaturase enzyme", "settings": "Shimizu et al., Lipids 26:512-516 (1991); cited from earlier work"}, "[5]": {"tested_on": "PGE2, IL-10, IL-6 and TNF-α", "settings": "fed mice, cited from earlier work"}, "[6]": {"settings": "mice fed sesamol-supplemented diets vs SO diets"}, "[7]": {"settings": "liver membrane phospholipids, 5 wt % SO + 1% sesamol diet, mean ± s.d., n=8"}, "[8]": {"settings": "liver membrane phospholipids, 5 wt % SO + 1% sesamol diet, mean ± s.d., n=8, listed as SO + SESAMOL"}},
  "note": "Several values for one entry are separate records, joined by “and”; a condition that tells them apart may be missing. Identical values can stand only once. Entries after “also recorded” stand apart in the source; their conditions may differ. Marks after values point to notes of the source that are not given here.",
  "data": [
    {"smiles": "Oc1ccc2c(c1)OCO2", "note": "[sesamol, 3,4-methylenedioxyphenol]", "values": [
      {"measurement": "weights of body", "setting": "[1]; [6]", "value": "not significantly different"},
      {"measurement": "weights of livers", "setting": "[1]; [6]", "value": "unaffected; also recorded: not significantly different"},
      {"measurement": "weights of the spleen", "setting": "[1]; [6]", "value": "not significantly different"},
      {"measurement": "percent gain in body weights", "setting": "[1]; sesamol-supplemented vs SO diet group", "value": "almost identical"},
      {"measurement": "IL-10", "setting": "[2]; SO alone 314 ± 37", "value": "significantly higher"},
      {"measurement": "IL-10", "setting": "[2]; SO alone 314 ± 37, listed as SO + Sesamol", "value": "490 ± 35", "unit": "pg/mL"},
      {"measurement": "IL-6", "setting": "[2]; SO alone 418 ± 51", "value": "did not differ"},
      {"measurement": "IL-6", "setting": "[2]; SO alone 418 ± 51, listed as SO + Sesamol", "value": "360 ± 32", "unit": "pg/mL"},
      {"measurement": "PGE2", "setting": "[2]; SO alone 595 ± 68", "value": "markedly lower"},
      {"measurement": "PGE2", "setting": "[2]; SO alone 595 ± 68, listed as SO + Sesamol", "value": "265 ± 39", "unit": "pg/mL"},
      {"measurement": "TFN-α", "setting": "[2]; SO alone 9,497 ± 1425", "value": "markedly lower"},
      {"measurement": "TFN-α", "setting": "[2]; SO alone 9,497 ± 1425, listed as SO + Sesamol", "value": "4,503 pg/ml"},
      {"measurement": "IL-12", "setting": "[2]; SO alone 11,165 ± 549", "value": "markedly lower"},
      {"measurement": "IL-12", "setting": "[2]; SO alone 11,165 ± 549, listed as SO + Sesamol", "value": "8,969 pg/ml"},
      {"measurement": "Arachidonic acid (20:4ω6)", "setting": "[3]; [7]", "value": "unchanged"},
      {"measurement": "Docosahexaenoic acid (22:6ω3)", "setting": "[3]; [7]", "value": "9.5 ± 0.4", "unit": "mole percents"},
      {"measurement": "Oleic acid (18:1ω9)", "setting": "[3]; [7]", "value": "8.2 ± 1.1", "unit": "mole percents"},
      {"measurement": "Palmitic acid (16:0)", "setting": "[3]; [7]", "value": "19.5 ± 1.4", "unit": "mole percents"},
      {"measurement": "Stearic acid (18:0)", "setting": "[3]; [7]", "value": "19.2 ± 1.7", "unit": "mole percents"},
      {"measurement": "Vaccenic acid (18:1ω7)", "setting": "[3]; [7]", "value": "2.6 ± 0.4", "unit": "mole percents"},
      {"measurement": "DGLA (20:3ω6)", "setting": "[3]; [7]", "value": "1.6±0.1 mole percents and 1.6±1 mole percents"},
      {"measurement": "DGLA (20:3ω6)", "setting": "[3]; [8]", "value": "1.6 ± 0.1^a mole percents"},
      {"measurement": "Docosapentaenoic acid (22:5ω6)", "setting": "[3]; [7]", "value": "1.4±0.1", "unit": "mole percents"},
      {"measurement": "Docosapentaenoic acid (22:5ω6)", "setting": "[3]; [8]", "value": "1.4 ± 0.1^a mole percents"},
      {"measurement": "Arachidonic acid (20:4ω6)", "setting": "[3]; [8]", "value": "24.9 ± 0.9", "unit": "mole percents"},
      {"measurement": "Δ-5 desaturation (20:4ω6/20:3)", "setting": "[3]", "value": "15.6±1.5"},
      {"measurement": "Δ-5 desaturation (20:4ω6/20:3)", "setting": "[3]; listed as SO + SESAMOL", "value": "15.6 ± 1.5^a"},
      {"measurement": "Tumor Necrosis Factor (TNF)-α", "setting": "[4]", "value": "not elevated; also recorded: unaffected; also recorded: did not differ markedly; also recorded: did not differ significantly"},
      {"measurement": "Tumor Necrosis Factor (TNF)-α", "setting": "[4]; listed as SO + SESAMOL", "value": "2,931 ± 461 pg/ml"},
      {"measurement": "Interleukin (IL)-6", "setting": "[4]", "value": "63 ± 11", "unit": "ng/mL"},
      {"measurement": "Interleukin (IL)-6", "setting": "[4]; listed as SO + SESAMOL", "value": "63 ± 11", "unit": "ng/mL"},
      {"measurement": "IL-10", "setting": "[4]", "value": "unaffected; also recorded: did not differ markedly; also recorded: did not differ significantly"},
      {"measurement": "IL-10", "setting": "[4]; listed as SO + SESAMOL", "value": "236 ± 20", "unit": "pg/mL"},
      {"measurement": "IL-12", "setting": "[4]", "value": "did not differ markedly"},
      {"measurement": "IL-12", "setting": "[4]; listed as SO + SESAMOL", "value": "6,620 ± 646 pg/ml"},
      {"measurement": "inhibition of the activity of Δ-5 desaturase enzyme in vitro", "setting": "Δ-5 desaturase enzyme", "value": "does not inhibit"}
    ]},
    {"smiles": "c1cc2c(cc1O[C@H]1OC[C@H]3[C@@H]1CO[C@@H]3c1ccc3c(c1)OCO3)OCO2", "note": "[sesamolin]", "values": [
      {"measurement": "inhibition of the activity of Δ-5 desaturase enzyme in vitro", "setting": "Δ-5 desaturase enzyme", "value": "inhibit"}
    ]},
    {"smiles": "Oc1cc2c(cc1[C@H]1OC[C@H]3[C@@H]1CO[C@@H]3c1ccc3c(c1)OCO3)OCO2", "note": "[sesaminol]", "values": [
      {"measurement": "inhibition of the activity of Δ-5 desaturase enzyme in vitro", "setting": "Δ-5 desaturase enzyme", "value": "inhibit"}
    ]},
    {"smiles": "c1cc2c(cc1[C@H]1OC[C@H]3[C@@H]1CO[C@@H]3c1ccc3c(c1)OCO3)OCO2", "note": "[sesamin]", "values": [
      {"measurement": "inhibition of the activity of Δ-5 desaturase enzyme in vitro", "setting": "Δ-5 desaturase enzyme", "value": "inhibit"},
      {"measurement": "LPS-induced production of IL-6", "setting": "[5]; Chavali et al. 1997", "value": "lower"},
      {"measurement": "LPS-induced production of IL-10", "setting": "[5]; Chavali et al. 1997", "value": "lower"},
      {"measurement": "LPS-induced production of PGE2", "setting": "[5]; Chavali et al. 1997", "value": "lower"},
      {"measurement": "LPS-induced production of TNF-α", "setting": "[5]; Chavali et al.", "value": "elevated; also recorded: higher"}
    ]}
  ]
}
